According to paper PMC9259647 (Scientific Reports, 2022):
Where two headings read alike, the source gives them in different places.

What was measured:
HXYN2 [1] = target: T1, HXYN2 (Humicola insolens, UniProt P55334); assay: Effect of phenolic compounds on HXYN2 activity (DNS xylanase assay); format: biochemical, Humicola grisea var. thermoidea; details: for activating effect on HXYN2 activity: after 0 and 24 h of incubation
T1 construct: made in house; host or cells: Pichia pastoris GS115 (vector pHIL-D2), purified from culture supernatant
T1 sequence (P55334 20-227): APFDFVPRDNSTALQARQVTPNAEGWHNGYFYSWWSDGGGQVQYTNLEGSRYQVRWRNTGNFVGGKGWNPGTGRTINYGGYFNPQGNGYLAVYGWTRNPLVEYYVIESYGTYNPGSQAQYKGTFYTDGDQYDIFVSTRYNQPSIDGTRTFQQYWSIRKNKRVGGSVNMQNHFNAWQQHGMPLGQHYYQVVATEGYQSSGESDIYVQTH

HXYN2 [2] = target: T1, HXYN2; assay: Fluorescence quenching of HXYN2 by FA; format: binding, Humicola grisea var. thermoidea; details: range, acidic to basic pH
Method: HXYN2 in complex with FA was investigated by fluorescence quenching as a function of pH. Trp and Trp-Tyr emission measurements were performed at 25 °C, in triplicate, after excitation at 295 nm and 275 nm, respectively. Protein fluorescence emission was recorded in the range of 300 to 450 nm. A path length quartz cuvette of 1 cm and excitation and emission slit width of 5 nm were employed. Data intervals of 1 nm, gain medium, a response time of 2 s, and a scanning speed of 50 nm/min were used with two averaged spectra accumulations. Fluorescence quenching of 0.43 µM HXYN2 with 0 to 23.68 µM FA in 95% ethanol and 0.05 M of sodium acetate buffer at pH 4.0 and 0.05 M of Tris–HCl at pH 7.0 and pH 9.0 was performed using a Jasco ATS-443 Automatic titration (Jasco Analytical Instrument, Tokyo, Japan). The fluorescence intensity background and dilution were corrected. The Stern–Volmer linear regression (Eq. 4) of the relative […] of fluorescence intensity at 334 nm (F/F0) versus FA concentration was used to describe the fluorescence quenching of Trp accessible to the quencher[52]:4 F0/F=1+Kq∗τ0Q=1+KSVQ where F and F0 are the fluorescence intensities at 334 nm, in the presence and absence of FA, respectively, Q is the concentration of the quencher, and Ksv is the Stern–Volmer constant. […]

HXYN2 [3] = system: HXYN2
HXYN2 [4] = assay: CD thermal unfolding of HXYN2 in the presence of FA; set-up: species or system Humicola grisea var. thermoidea; details: pH 6.0, FA 60 µM; 63.5 °C without FA
Method: Thermostability assays of HXYN2 were performed at pH 4.0, 6.0, 7.0 and 9.0 at 218 nm, corresponding to the structured region of β-sheet, with temperature ranging from 25 to 95 °C and data collection of 0.2 °C/min. In addition, the CD spectra were recorded at a step size of 0.2 nm at intervals of 10 °C using the same parameters described above. Thermal denaturation curves were plotted considering the molar ellipticity values (θ) versus temperature. The unfolded status of the protein (Fu) was calculated by Eq. (6):6 Fu=yN-y/yN-yU where, yN and yU represent the values of y (into molar ellipticity) characteristic of the folded and unfolded states, respectively. The normalized unfolding curves were adjusted using the Boltzmann equation and the Origin 8.1 software (OriginLab Corporation, Northampton, MA, USA) from which the melting temperature (Tm) was estimated.
The effect of FA on the secondary structure content of HXYN2 was also investigated by CD. Assays were performed with protein at concentration of 0.15 mg/mL in 5 mM Bis–Tris pH 6.0 and FA at concentration of 60 µM. A quartz cuvette of 0.05 cm path length was used to record the Far-UV CD spectra in the range from 260 to 190 nm at 25 °C. Thermostability assays of HXYN2 in the presence of FA at pH 6.0 were also performed, using the same parameters described above.

HXYN2 [5] = target: T1, HXYN2; assay: Isothermal titration calorimetry of HXYN2 with FA; format: binding, Humicola grisea var. thermoidea
Method: An initial spacing setting of 500 s and an initial injection of 2 µL were employed. The following 12 injections of 5 µL were performed with an interval spacing of 600 s. The final 16 injections comprised 10 µL, with an interval spacing of 600 s.
The heat released after each injection was calculated from the raw data by integration of the peaks after subtraction of the baseline. The binding isotherms were fitted to different models using the software ORIGIN v7 (OriginLab, Northampton, MA, USA) provided by MicroCal. The best fit was determined using only two parameters, namely the binding constant (K) and enthalpy (H) on each site, following selction of the total number of sites. […] Changes in Gibbs free energy (ΔG) were calculated by Eq. (3):3 ΔG=-RTlnKa=ΔH-TΔS

[6] = system: GH10 xylanase from Penicillium chrysogenum; set-up: method as in PMID 30654038; details: oat spelt xylan as a substrate; cited from earlier work
[7] = system: GH11 xylanase from Aspergillus tamarii; details: birchwood xylan as a substrate; cited from earlier work
[8] = system: fungal cellulases and β-glucosidase; set-up: method as in PMID 22112771; details: cited from earlier work

O=C(O)c1ccc(O)cc1 [4-hydroxybenzoic acid]
activating effect on HXYN2 activity (HXYN2 [1]; 1 mg/mL): 20–75%

COc1cc(/C=C/C(=O)O)ccc1O [FA, 3-(4-hydroxy-3-methoxy-phenyl-prop-2-enoic)]
bimolecular quenching constant, Kq (HXYN2 [2]): 3.2e+11 to 6.5e+11 M⁻¹ s⁻¹ | Vmax (HXYN2 [3]; FA 0.25 mg/mL): 56.71 ± 1.11 µmol/min | kcat (HXYN2 [3]; FA 0.25 mg/mL): 2.363 s⁻¹ | Vmax (HXYN2 [3]; FA 0.5 mg/mL): 117.21 ± 1.26 µmol/min | kcat (HXYN2 [3]; FA 0.5 mg/mL): 4.8837 s⁻¹ | Vmax (HXYN2 [3]; FA 1 mg/mL): 167.22 ± 8.12 µmol/min | kcat (HXYN2 [3]; FA 1 mg/mL): 6.9678 s⁻¹ | increase in enzymatic activity of HXYN2 in comparison to the control (HXYN2 [1]; 1 mg/mL, 0 and 24 h of incubation, beechwood xylan): 60–75% | activation at 1000 µg/mL (HXYN2 [1]; 24 h, read-out: activating effect on HXYN2, after 24 h of incubation): ~75% | activation at 1000 µg/mL (HXYN2 [1]; read-out: activating effect on HXYN2 activity, 1 mg/mL, after 0 and 24 h of incubation): 20 to 75% | activation at 1000 µg/mL (HXYN2 [1]; read-out: increase in enzymatic activity of HXYN2 in comparison to the control, 1 mg/mL, 0 and 24 h of incubation, beechwood xylan): 75% | Tm of HXYN2 in the presence of FA (HXYN2 [4]): 54.1 °C | Kd (HXYN2 [5]; Kd, binding sites 2 and 4): ~2500 nM | K (binding constant) (HXYN2 [5]; binding site 1, pH 6.0, 298 °K): 14.70 10^6 M^-1 | binding constant (HXYN2 [5]; binding sites 2 and 4): ~ 0.4 × 10^6 M^−1 | Kd (HXYN2 [5]; dissociation constant (Kd), range over four sites): 68 to 2320 nM | Gibbs free energy (HXYN2 [5]; range over four sites): −5.5 to −10.0 kcal/mol

O=C(O)c1cc(O)c(O)c(O)c1 [gallic acid]
activating effect on HXYN2 activity (HXYN2 [1]; 1 mg/mL): 20–75%

O=C(O)/C=C/c1ccc(O)cc1 [p-coumaric acid]
activating effect on HXYN2 activity (HXYN2 [1]; 1 mg/mL): 20–75%

COc1cc(C=O)cc(OC)c1O [syringaldehyde]
activating effect on HXYN2 activity (HXYN2 [1]; 1 mg/mL): 20–75%

O=C(O)/C=C/c1ccccc1 [trans-cinnamic acid]
activating effect on HXYN2 activity (HXYN2 [1]; 1 mg/mL): 20–75%

COc1cc(C=O)ccc1O [vanillin]
activating effect on HXYN2 activity (HXYN2 [1]; 1 mg/mL): 20–75%

tannic acid
inhibitory effect [6]: 17% | reduction in HXYN2 activity (HXYN2 [1]; 1 mg/mL, pre-incubation 0 h): 26% | reduction in HXYN2 activity (HXYN2 [1]; 1 mg/mL, pre-incubation 24 h): 59% | deactivating effect on HXYN2 (HXYN2 [1]; after 24 h of incubation): ~59% | increase in the activity [7]: 12% | inhibition [8]: up to 80%
